Experimental data: patent US9388147B2 (Receptos, Inc., priority 2009, dated 2016)
Structures can show the parent of a compound that is named as a salt. Where two headings read alike, the source gives them in different places.

Key:
[1] = target: T1, S1P2 (Homo sapiens, UniProt O95136); test: Specificity over other S1P receptors: S1P2 CRE-bla CHOK1 reporter assay; assay type: cell-based; details: S1P2 CRE-bla CHOK1, without Forskolin; read-out: S1P2 agonist value (EC50)
T1 construct: expressed in transfected cells; host or cells: CRE-bla CHOK1
T1 sequence (O95136 whole entry, species assumed): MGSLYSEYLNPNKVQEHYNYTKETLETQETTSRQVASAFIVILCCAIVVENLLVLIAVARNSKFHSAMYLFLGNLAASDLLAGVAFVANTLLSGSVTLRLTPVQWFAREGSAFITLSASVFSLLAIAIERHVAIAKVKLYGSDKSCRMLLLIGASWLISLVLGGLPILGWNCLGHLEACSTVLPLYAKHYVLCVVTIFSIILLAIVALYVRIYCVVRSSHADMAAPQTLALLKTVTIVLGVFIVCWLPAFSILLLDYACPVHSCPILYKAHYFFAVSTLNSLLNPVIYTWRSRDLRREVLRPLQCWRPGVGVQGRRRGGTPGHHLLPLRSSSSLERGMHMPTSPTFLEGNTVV
Description: (§1) Cells were seeded into 384-well black wall/clear bottom plates at 10^4 cells/well/19.5 μl assay media (DMEM-phenol free, 0.5% charcoal/dextran stripped serum, 2 mM glutamine, 0.1 mM NEAA, 1 mM Na-Pyruvate, 25 mM Hepes) and incubated for 18 hrs at 37° C. in 5% CO2. Dose response curves (10-point) were generated in 10 mM Hepes, 0.1% Pluronic F127, in the presence of Forskolin. Cells were treated with 0.5 μl compound in the presence of 2 μM Forskolin for 4 hrs at 37° C. The FRET-based β-lactamase fluorescent substrate (LiveBLAzer™-FRET B/G Loading Kit CC4-AM; Invitrogen) was prepared according to manufacturer's directions, and incubated with cells for 2 hrs at room temperature. Plates were read at Ex:410/Em:458 and Ex:410/Em:522, and the response ratio determined. Data was analyzed by non-linear regression to determine the EC50 for inhibition of Forskolin induced cAMP.
(§2) To assess compound specificity on other S1P receptors the following cell lines were used: S1P2 CRE-bla CHOK1, S1P3-Gα15 NFAT-bla HEK293T (Invitrogen), S1P4-bla TANGO U2OS (Invitrogen), S1P5-bla TANGO U2OS (Invitrogen). The same assay set up for S1P1 was used but without Forskolin. S1P4 and S1P5 assays were performed in FreeStyle Expression medium (Invitrogen). S1P5 cells were incubated for 48 hrs in prior to treatment with compound.

[2] = target: T2, S1P3 (Homo sapiens, UniProt Q99500); test: Specificity over other S1P receptors: S1P3-Gα15 NFAT-bla HEK293T reporter assay; assay type: cell-based; details: without Forskolin, read-out: S1P3 agonist value (EC50)
T2 construct: host or cells: NFAT-bla HEK293T
T2 sequence (Q99500 whole entry): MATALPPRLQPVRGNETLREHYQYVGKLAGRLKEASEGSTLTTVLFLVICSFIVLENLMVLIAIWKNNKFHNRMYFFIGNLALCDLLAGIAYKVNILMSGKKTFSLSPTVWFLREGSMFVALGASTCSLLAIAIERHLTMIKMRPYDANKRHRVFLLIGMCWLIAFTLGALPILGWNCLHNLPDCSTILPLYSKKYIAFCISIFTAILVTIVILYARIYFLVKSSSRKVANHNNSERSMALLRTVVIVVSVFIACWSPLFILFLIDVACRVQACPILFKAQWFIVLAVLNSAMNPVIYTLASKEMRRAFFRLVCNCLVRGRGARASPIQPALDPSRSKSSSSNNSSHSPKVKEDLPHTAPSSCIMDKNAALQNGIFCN
Description: as §1, §2

[3] = target: T3, S1P5 (Homo sapiens, UniProt Q9H228); test: Specificity over other S1P receptors: S1P5-bla TANGO U2OS assay; assay type: cell-based; details: read-out: S1P5 agonist value (EC50)
T3 construct: Tango fusion (own knowledge: protease cleavage site plus GAL4-VP16 transcription factor at the receptor's C-terminus); host or cells: U2OS (Tango -bla)
T3 sequence (Q9H228 whole entry, the tested form may be a part): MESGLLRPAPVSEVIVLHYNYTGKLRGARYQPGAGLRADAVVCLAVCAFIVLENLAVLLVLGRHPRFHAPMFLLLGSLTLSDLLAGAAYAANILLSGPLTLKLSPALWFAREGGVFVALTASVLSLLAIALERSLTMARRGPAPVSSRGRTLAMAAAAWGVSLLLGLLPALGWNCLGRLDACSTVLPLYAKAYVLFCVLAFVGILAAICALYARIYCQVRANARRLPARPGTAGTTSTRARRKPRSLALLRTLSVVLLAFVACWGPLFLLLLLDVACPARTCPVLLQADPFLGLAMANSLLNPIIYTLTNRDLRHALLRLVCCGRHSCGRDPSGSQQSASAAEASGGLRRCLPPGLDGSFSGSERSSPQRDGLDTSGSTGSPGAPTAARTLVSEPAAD
Description: as §1, §2

[4] = tested on: peripheral T-cell counts; test: Lymphopenia in rats, 3-5 day multiple dose regimen; assay type: in vivo, rat; details: female rats, oral, 24 h after final dose of a 3-5 day multiple dose regimen
Description: In rats: Female rats (Simonsen Laboratories, Gilroy Calif.) were housed in an ALAAC accredited facility and the research was approved by the facilities Institutional Animal Care and Use Committee (IACUC). The animals were acclimated to the laboratory for at least 5 days prior to initiation of experiments. Rats (n=3/compound/time-point) were dosed by oral gavage with 1 mg/kg compound formulated in a vehicle consisting of 5% DMS0/5% Tween 20 and 90% 0.1N HCL. Control rats were dosed PO with the vehicle. Whole blood was collected from isoflurane anesthetized rats via the retro-orbital sinus and terminal samples were collected by cardiac puncture into EDTA. Whole blood was incubated with mouse anti-rat CD32 (BD #550271), PE-mouse anti-rat CD45R/B220 (BD #554881), PECy5-mouse anti-rat CD4 (BD #554839), and APC-mouse anti-rat CD8a (eBioscience #17-0084) for 30 minutes on ice. Red blood cells were lysed using BD Pharm Lyse Lysing buffer (#555899) and white blood cells were analyzed with a BD FACSArray. Lymphopenia was expressed as the % of white blood cells that were CD4 or CD8 positive T cells. The overall lymphopenia response over 24 h was estimated by calculating the area under the effect curve (AUEC) using the linear trapezoidal rule.
The compounds listed in Table 6 were formulated as suspensions in a vehicle consisting of 0.5% carboxymethyl cellulose (Acros Organics) in purified water (pH adjusted to ˜2.2 with hydrochloric acid). The same formulation was used in the rat lymphopenia and toxicology studies described below. The concentration of each compound in suspension was verified to be within ±10% of the target concentration by HPLC-UV.
Prior to the conduct of toxicology studies, the effect of three to five daily doses of each compound on peripheral T-cell counts of female rats was determined (see lymphopenia measurements in rats above). In these lymphopenia studies, blood samples were collected onto EDTA at intervals after the final study dose. The collection times were not identical for each study, however, all studies included a sample collected 24 hours after the final dose. The lymphopenia data was used as a biomarker to select equally pharmacologically active doses for the subsequent toxicology study. […] The high dose in the toxicology study represented a ≧20-fold increment over the low dose.
The dose producing a 10% increase in lung to body weight ratio was interpolated from a plot of dose versus lung to body weight. The lymphopenia response was measured 24 hours following the final dose of a 3-5 day multiple dose regimen.

[5] = target: S1P1/EDG1 (Homo sapiens, UniProt P21453); test: S1P1 CRE-bla CHOK1 reporter assay, inhibition of Forskolin induced cAMP; assay type: cell-based
S1P1/EDG1, sequence (P21453 whole entry): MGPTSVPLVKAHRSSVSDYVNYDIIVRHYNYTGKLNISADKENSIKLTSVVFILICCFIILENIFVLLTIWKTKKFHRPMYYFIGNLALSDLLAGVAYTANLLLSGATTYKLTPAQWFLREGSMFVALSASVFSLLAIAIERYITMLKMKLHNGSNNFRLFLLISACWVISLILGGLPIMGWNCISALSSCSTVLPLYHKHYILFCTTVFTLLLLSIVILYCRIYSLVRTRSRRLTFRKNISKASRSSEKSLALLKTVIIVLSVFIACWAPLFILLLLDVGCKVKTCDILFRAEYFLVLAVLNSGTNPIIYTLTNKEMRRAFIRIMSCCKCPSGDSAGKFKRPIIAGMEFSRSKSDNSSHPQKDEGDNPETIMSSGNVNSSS
Outline: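 Read-out is a FRET β-lactamase substrate (2 h, room temperature) after 4 h, 37 °C compound treatment under 2 μM Forskolin in stable S1P1-transfected CRE-bla CHO-K1 cells. Ten-point curves; non-linear regression gives EC50 for inhibition of Forskolin-stimulated cAMP.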

[6] = S1P1 CRE-bla CHOK1, with Forskolin, read-out: S1P1 agonist value (EC50)
[7] = agonist activity range, S1P1 CRE-bla CHOK1, 2 μM Forskolin, read-out: S1P1 ACTIVITY

| Compound | EC50 [1] [nM] | EC50 [2] [nM] | EC50 [3] [nM] | Dose Producing 50% lymphopenia [4] [mg/kg] | EC50 [5, 6] [nM] | EC50 [5, 7] [nM] |
| --- | --- | --- | --- | --- | --- | --- |
| CC(C)Oc1ccc(-c2nc(-c3cccc4c3CC[C@H]4NCC(=O)N(C)C)no2)cc1C#N [Compound 90, (R)-2-(4-(5-(3-cyano-4-isopropoxyphenyl)-1,2,4-oxadiazol-3-yl)-2,3-dihydro-1H-inden-1-ylamino)-N,N-dimethylacetamide hydrochloride] | 6660 | 8820 | 12.9 | 0.40 | 0.13 | 0.05 to 0.5 |
| CC(C)Oc1ccc(-c2nc(-c3cccc4c3CC[C@H]4N)no2)cc1C#N [Compound 49, (R)-5-(3-(1-amino-2,3-dihydro-1H-inden-4-yl)-1,2,4-oxadiazol-5-yl)-2-isopropoxy-benzonitrile hydrochloride] | 1080 | 8940 | 20.1 | 0.10 | 0.17 | 0.05 to 0.5 |
| CC(C)Oc1ccc(-c2nc(-c3cccc4c3CC[C@@H]4N)no2)cc1C#N [Compound 50, (S)-5-(3-(1-amino-2,3-dihydro-1H-inden-4-yl)-1,2,4-oxadiazol-5-yl)-2-isopropoxy-benzonitrile] | 7720 | 8910 | 44.5 | 0.10 | 0.19 | 0.05 to 0.5 |
| CC(C)Oc1ccc(-c2nc(-c3cccc4c3CC[C@@H]4NCC(=O)N(C)C)no2)cc1C#N [Compound 91, (S)-2-(4-(5-(3-cyano-4-isopropoxyphenyl)-1,2,4-oxadiazol-3-yl)-2,3-dihydro-1H-inden-1-ylamino)-N,N-dimethylacetamide] | > 10000 | > 10000 | 15.2 | 0.30 | 0.09 | 0.05 to 0.5 |
| CC(C)Oc1ccc(-c2nc(-c3cccc4c3CC[C@H]4NCCO)no2)cc1C#N [Compound 85, (R)-5-(3-(1-(2-hydroxyethylamino)-2,3-dihydro-1H-inden-4-yl)-1,2,4-oxadiazol-5-yl)-2-isopropoxybenzonitrile] | 5690 | 4500 | 15.1 | 0.15 |  |  |
